In ChEMBL document CHEMBL1125949, “Synthesis and biological evaluation of 3-amino-2-(4-chlorophenyl)1,1-difluoropropyl phosphonic acid” (Bioorg Med Chem Lett, 1991):

Species: Rattus norvegicus
Experiment: GABA-B agonistic activity in rat anococcygeus
Format: functional

NCC(c1ccc(Cl)cc1)C(F)(F)P(=O)(O)O (stereo unspecified) gave an EC50 of about 300 µM.
